{"source": "patent US9393213B2", "about": "“Nanocrystals, compositions, and methods that aid particle transport in mucus” (Kala Pharmaceuticals, Inc., priority 2012, dated 2016)", "key": {"HSV-2": {"system": "HSV-2", "conditions": "single vaginal pretreatment with 50 mg/mL (5%); guinea pigs; cited from earlier work"}, "HSV-2 strain G": {"system": "HSV-2 strain G", "experiment": "HSV-2 vaginal challenge in mice", "type": "in vivo, CF-1 mice", "conditions": "intravaginal 30 min before challenge", "method": "Female 6-8 week old CF-1 mice were subcutaneously injected with medroxyprogesterone acetate, and one week later received 20 μl of test agent or PBS intravaginally with a fire-polished positive displacement capillary pipette (Wiretrol, Drummond Scientific). Thirty minutes later, mice were challenged with 10 uL of inoculum containing HSV-2 strain G (ATCC #VR-734, 2.8×10^7 TCID50 per mL). […] Mice were assessed for infection three days later after inoculation by culturing a PBS vaginal lavage on human foreskin fibroblasts (Diagnostic Hybrids, MRHF Lot #440318W), as described previously (R. A. Cone, T. Hoen, X. Wong, R. Abusuwwa, D. J. Anderson, T. R. Moench, Vaginal microbicides: detecting toxicities in vivo that paradoxically increase pathogen transmission. BMC Infect Dis 6, 90 (2006)).\nBoth the drug and the virus were administered intravaginally.\nACVp nanoparticles were formulated with the same muco-inert coating used for all other studies. […] To study the distribution and retention of nanoparticles at the vaginal mucosal surface and the effects of repeated dosing, 6-8 week old CF-1 mice (Harlan) were used. Mice were housed in a reversed light cycle facility (12 h light/12 h dark). […] Journal of Virology 79, 3107-3116 (2005)).\nAll data are presented as a mean with standard error of the mean (SEM) indicated. Statistical significance was determined by a two-tailed, Student's t-test (α=0.05) assuming unequal variance. In the case of HSV-2 challenge, statistical significance was determined using Fisher's exact test, two-tailed distribution."}, "[1]": {"type": "physicochemical", "text": "Tenofovir (TFV) is a potent antiviral drug used to treat infectious diseases. Due to the fact that tenofovir (TFV) is highly water soluble, a method was developed for formulating mucus-penetrating particles of tenofovir. […] In order to decrease the water solubility of TFV, interactions between cations and nucleotides/nucleotide analogs were exploited. TFV interacts very strongly with zinc cations (Zn), via the phosphonate group and the purine ring structure. This interaction with zinc causes TFV precipitation into crystals that can be stabilized with the coatings described herein, halting aggregation and determining the crystal surface properties. Additionally, Zn is naturally present in vaginal fluid and has known antimicrobial properties recently extended to include anti-HIV activity."}, "[2]": {"text": "[formula] where <Vmean> is the ensemble average trajectory-mean velocity, Vmean is the velocity of an individual particle averaged over its trajectory, the sample is the particle of interest, the negative control is a 200 nm carboxylated polystyrene particle, and the positive control is a 200 nm polystyrene particle densely PEGylated with 2 kDa-5 kDa PEG.\nFor instance, a fluorescent microscope equipped with a CCD camera can be used to capture 15 s movies at a temporal resolution of 66.7 ms (15 frames/s) under 100× magnification from several areas within each sample for each type of particles: sample, negative control, and positive control.\nIn a typical experiment, ≦0.5 uL of a nanosuspension (diluted if necessary to the surfactant concentration of ˜1%) was added to 20 μl of fresh CVM along with controls. […] Using a fluorescent microscope equipped with a CCD camera, 15 s movies were captured at a temporal resolution of 66.7 ms (15 frames/s) under 100× magnification from several areas within each sample for each type of particles: sample (pyrene), negative control, and positive control (natural blue fluorescence of pyrene allowed observing of pyrene nanoparticles separately from the controls). […] To enable easy comparison between different samples and normalize velocity data with respect to natural variability in penetrability of CVM samples, relative sample velocity <Vmean>rel, was determined according to the formula shown in Equation 1.\nCVM was collected by inserting a Softcup® menstrual collection cup into the vaginal tract as described by the product literature for between 30 seconds and 2 minutes. After removal the CVM was then collected from the Softcup® by gentle centrifugation at ˜30×G to ˜120×G in a 50 mL centrifuge tube. In Example 1, CVM was used undiluted and fresh (stored for no longer than 7 days under refrigerated conditions). Barrier and transport of all CVM samples used in Example 1 were verified with negative (200 nm carboxylated polystyrene particles) and positive (200 nm polystyrene particles modified with PEG 5K) controls. In Example 2, CVM was lyophilized and reconstituted. In Example 2, mucus was frozen at −50° C. and then lyophilized to dryness. Samples were then stored at −50° C. Before use, the mucus was reconstituted by grinding the solid into a fine powder using a mortar and pestle followed by water addition to a final volume equal to the original volume to 2 times the original volume. The reconstituted mucus was then incubated at 4° C. for 12 hours and used as described in Example 2. Barrier and transport of all CVM samples used in Example 2 were verified with negative (200 nm carboxylated polystyrene particles) and positive (F127 coated 200 nm polystyrene particles) controls."}, "[3]": {"system": "IL-1β, IL-1α, TNF-α, and IL-6", "experiment": "Cytokine concentrations in cervicovaginal lavage after daily vaginal treatment for 7 days", "conditions": "day 8 after daily dosing for seven days", "procedure": "Because our ultimate goal was to test MPPs for protection against HSV-2, we compared an MPP formulation containing acyclovir monophosphate (ACVp) to N9, HEC placebo gel, PBS, and a gel vehicle (TFV vehicle) used in recent tenofovir clinical trials. Nanoparticle and control formulations were administered vaginally to Depo Provera-treated mice daily for seven days.\nTwenty μL of each test agent was administered intravaginally to the DP mouse model once-a-day for seven (7) days. […] On the eighth day, each mouse was lavaged twice with 50 μL of PBS. Each lavage sample was diluted with an additional 200 μL of PBS and centrifuged to remove the mucus plug. Supernatant (200 μL) was removed and split into 50 μL for each of the four (IL-1β, IL-1α, TNF-α, and IL-6) Quantikine ELISA kits (R&D Systems, Inc.). ELISAs were conducted per the manufacturer's instructions."}, "[4]": {"experiment": "Acute vaginal toxicity by H&E staining 24 h after intravaginal administration", "type": "in vivo, DP mice", "method": "Standard hematoxylin and eosin (H&E) staining was used to investigate potential toxic effects of intravaginally administered nanoparticles. […] The same (BD-) MPPs and (BD-) CPs that were used for distribution and retention studies were tested for toxicity.\nFive μL of particles or control solutions were administered intravaginally to the DP mouse model. After 24 h, whole cervicovaginal tracts were obtained and fixed in 4% paraformaldehyde solution for 24 h. Tissues were placed in 70% ethanol and taken to the Johns Hopkins Reference Histology Laboratory for paraffin embedding and standard H&E staining."}}}
{"molecule": "acyclovir monophosphate [Soluble ACV]", "values": [{"measurement": "animals infected compared to controls", "setting": "HSV-2", "result": 70, "unit": "%"}, {"measurement": "% Infected", "setting": "HSV-2 strain G; 1 mg/mL in PBS", "result": 84.0, "unit": "%"}, {"measurement": "# Infected", "setting": "HSV-2 strain G; 1 mg/mL in PBS, 25 mice", "result": 21}, {"measurement": "% Infected", "setting": "HSV-2 strain G; 1 mg/mL in PBS, listed as Soluble ACVp", "result": 84, "unit": "%"}, {"measurement": "% Infected", "setting": "HSV-2 strain G; 1 mg/mL in PBS, listed as soluble ACVp", "result": 84.0, "unit": "%"}, {"measurement": "% Infected", "setting": "HSV-2 strain G; 10 mg/mL in PBS", "result": 62.0, "unit": "%"}, {"measurement": "# Infected", "setting": "HSV-2 strain G; 10 mg/mL in PBS, 100 mice", "result": 62}, {"measurement": "% Infected", "setting": "HSV-2 strain G; 10 mg/mL in PBS, listed as Soluble ACVp", "result": 62, "unit": "%"}, {"measurement": "% Infected", "setting": "HSV-2 strain G; 10 mg/mL in PBS, listed as soluble ACVp", "result": 62.0, "unit": "%"}, {"measurement": "% Infected", "setting": "HSV-2 strain G; 10 mg/mL in Water", "result": 69.3, "unit": "%"}, {"measurement": "# Infected", "setting": "HSV-2 strain G; 10 mg/mL in Water, 75 mice", "result": 52}]}
{"molecule": "C[C@H](Cn1cnc2c(N)ncnc21)OCP(=O)(O)O", "note": "[TFV, tenofovir]", "values": [{"measurement": "water solubility", "setting": "[1]", "result": "at least 15 mg/mL"}]}
{"molecule": "Tyloxapol", "values": [{"measurement": "Sample (relative) <Vmean>rel", "setting": "[2]", "result": "−0.02"}, {"measurement": "Sample <Vmean>", "setting": "[2]", "result": 0.42, "unit": "um/s"}]}
{"molecule": "Tween 80", "values": [{"measurement": "Sample (relative) <Vmean>rel", "setting": "[2]", "result": 0.17}, {"measurement": "Sample <Vmean>", "setting": "[2]", "result": 0.94, "unit": "um/s"}]}
{"molecule": "Nonoxynol-9 [N9]", "values": [{"measurement": "IL-1α level in vaginal lavage", "setting": "[3]", "result": "elevated"}, {"measurement": "IL-1β level in vaginal lavage", "setting": "[3]", "result": "elevated"}, {"measurement": "inflammation in H&E-stained vaginal tissue", "setting": "[4]", "result": "acute inflammation"}]}
